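Growth conditions: 96-well plates. Treatment: test compound, 48 hours, 5 concentrations. Analysis: linear interpolation between bracketing concentrations; unreached endpoints set to highest concentration. Abbreviation: GI50, concentration required for 50% inhibition of growth.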 Active and inactive are the calls of the source. Cut-off read from the data, not from the text of the source: active = GI50 up to about 1.1 µM and inactive = higher.
Columns and labels:
Assay in all cases: NCI tumour cell line growth inhibition, 48 h
SF-295 = test system: SF-295
SN12C = test system: SN12C
SF-268 = test system: SF-268
DU-145 = test system: DU-145
UACC-257 = test system: UACC-257
K562 = test system: K562
NCI-H522 = test system: NCI-H522
TK-10 = test system: TK-10
RPMI-8226 = test system: RPMI-8226
LOX IMVI = test system: LOX IMVI
SR = test system: SR
IGROV-1 = test system: IGROV-1
HOP-92 = test system: HOP-92
CAKI-1 = test system: CAKI-1
SK-MEL-5 = test system: SK-MEL-5
U-251 = test system: U-251
A498 = test system: A498
UO-31 = test system: UO-31
T47D = test system: T47D
EKVX = test system: EKVX
MCF7 = test system: MCF7
HT-29 = test system: HT-29
NCI-H226 = test system: NCI-H226
OVCAR-3 = test system: OVCAR-3
MOLT-4 = test system: MOLT-4
SK-OV-3 = test system: SK-OV-3
PC-3 = test system: PC-3
MDA-MB-435 = test system: MDA-MB-435
MDA-N = test system: MDA-N
HCT-116 = test system: HCT-116
SNB-19 = test system: SNB-19
786-0 = test system: 786-0
RXF 393 = test system: RXF 393
SW-620 = test system: SW-620
ACHN = test system: ACHN
HCC 2998 = test system: HCC 2998
UACC-62 = test system: UACC-62
M14 = test system: M14
SF-539 = test system: SF-539
HCT-15 = test system: HCT-15
Malme-3M = test system: Malme-3M
SK-MEL-2 = test system: SK-MEL-2
KM12 = test system: KM12
OVCAR-5 = test system: OVCAR-5
BT-549 = test system: BT-549
SNB-75 = test system: SNB-75
MDA-MB-231 = test system: MDA-MB-231
NCI/ADR-RES = test system: NCI/ADR-RES
OVCAR-4 = test system: OVCAR-4
A549 = test system: A549
HOP-62 = test system: HOP-62
OVCAR-8 = test system: OVCAR-8
NCI-H23 = test system: NCI-H23
NCI-H460 = test system: NCI-H460
SK-MEL-28 = test system: SK-MEL-28
COLO 205 = test system: COLO 205
Hs-578T = test system: Hs-578T
HL-60 = test system: HL-60
CCRF-CEM = test system: CCRF-CEM

Question: With `O=C(O)c1ccccc1C(=O)c1ccc2c(c1)Cc1ccccc1-2` as the compound, how does the GI50 (SF-295) read?
Answer: 69.7 µM (inactive)

Question: And the GI50 (SN12C)?
Answer: > 100 µM (inactive)

Question: And the GI50 (SF-268)?
Answer: > 100 µM (inactive)

Question: What about the GI50 (DU-145) of the same compound?
Answer: > 100 µM (inactive)

Question: And the GI50 (UACC-257)?
Answer: > 100 µM (inactive)

Question: And the GI50 (K562)?
Answer: 57.9 µM (inactive)

Question: And the GI50 (NCI-H522)?
Answer: 41.9 µM (inactive)

Question: What about the GI50 (TK-10) of the same compound?
Answer: 52.1 µM (inactive)

Question: And the GI50 (RPMI-8226)?
Answer: 60.8 µM (inactive)

Question: What about the GI50 (LOX IMVI) of the same compound?
Answer: 85.7 µM (inactive)

Question: And the GI50 (SR)?
Answer: 91.6 µM (inactive)

Question: What about the GI50 (IGROV-1) of the same compound?
Answer: > 100 µM (inactive)

Question: What about the GI50 (HOP-92) of the same compound?
Answer: > 100 µM (inactive)

Question: What about the GI50 (CAKI-1) of the same compound?
Answer: > 100 µM (inactive)

Question: And the GI50 (SK-MEL-5)?
Answer: > 100 µM (inactive)

Question: And the GI50 (U-251)?
Answer: 54 µM (inactive)

Question: And the GI50 (A498)?
Answer: > 100 µM (inactive)

Question: And the GI50 (UO-31)?
Answer: > 100 µM (inactive)

Question: And the GI50 (T47D)?
Answer: 80.4 µM (inactive)

Question: What about the GI50 (EKVX) of the same compound?
Answer: 68.5 µM (inactive)

Question: And the GI50 (MCF7)?
Answer: > 100 µM (inactive)

Question: And the GI50 (HT-29)?
Answer: 48.8 µM (inactive)

Question: What about the GI50 (NCI-H226) of the same compound?
Answer: 36.1 µM (inactive)

Question: What about the GI50 (OVCAR-3) of the same compound?
Answer: > 100 µM (inactive)

Question: And the GI50 (MOLT-4)?
Answer: > 100 µM (inactive)

Question: What about the GI50 (SK-OV-3) of the same compound?
Answer: > 100 µM (inactive)

Question: What about the GI50 (PC-3) of the same compound?
Answer: 66.4 µM (inactive)

Question: What about the GI50 (MDA-MB-435) of the same compound?
Answer: 63.4 µM (inactive)

Question: And the GI50 (MDA-N)?
Answer: 48.8 µM (inactive)

Question: What about the GI50 (HCT-116) of the same compound?
Answer: 73.5 µM (inactive)

Question: And the GI50 (SNB-19)?
Answer: > 100 µM (inactive)

Question: And the GI50 (786-0)?
Answer: > 100 µM (inactive)

Question: What about the GI50 (RXF 393) of the same compound?
Answer: > 100 µM (inactive)

Question: What about the GI50 (SW-620) of the same compound?
Answer: > 100 µM (inactive)

Question: And the GI50 (ACHN)?
Answer: 56.6 µM (inactive)

Question: And the GI50 (HCC 2998)?
Answer: 28.1 µM (inactive)

Question: And the GI50 (UACC-62)?
Answer: 66.8 µM (inactive)

Question: And the GI50 (M14)?
Answer: > 100 µM (inactive)

Question: What about the GI50 (SF-539) of the same compound?
Answer: > 100 µM (inactive)

Question: What about the GI50 (HCT-15) of the same compound?
Answer: 57.5 µM

Question: And the GI50 (Malme-3M)?
Answer: 80.9 µM (inactive)

Question: And the GI50 (SK-MEL-2)?
Answer: > 100 µM (inactive)

Question: What about the GI50 (KM12) of the same compound?
Answer: 64.1 µM (inactive)

Question: And the GI50 (OVCAR-5)?
Answer: > 100 µM (inactive)

Question: What about the GI50 (BT-549) of the same compound?
Answer: 78.9 µM (inactive)

Question: What about the GI50 (SNB-75) of the same compound?
Answer: > 100 µM (inactive)

Question: And the GI50 (MDA-MB-231)?
Answer: > 100 µM (inactive)

Question: What about the GI50 (NCI/ADR-RES) of the same compound?
Answer: 99.1 µM (inactive)

Question: What about the GI50 (OVCAR-4) of the same compound?
Answer: > 100 µM (inactive)

Question: What about the GI50 (A549) of the same compound?
Answer: 33.3 µM (inactive)

Question: And the GI50 (HOP-62)?
Answer: > 100 µM (inactive)

Question: And the GI50 (OVCAR-8)?
Answer: 83.2 µM (inactive)

Question: What about the GI50 (NCI-H23) of the same compound?
Answer: > 100 µM (inactive)

Question: And the GI50 (NCI-H460)?
Answer: 46.1 µM (inactive)

Question: And the GI50 (SK-MEL-28)?
Answer: 53.7 µM (inactive)

Question: What about the GI50 (COLO 205) of the same compound?
Answer: 57 µM (inactive)

Question: And the GI50 (Hs-578T)?
Answer: > 100 µM (inactive)

Question: With `Cc1cc2nc(N3C(=O)/C(=C/c4ccccc4S)N=C3c3ccccc3)sc2cc1C` as the compound, how does the GI50 (SF-295) read?
Answer: 27.4 µM (inactive)

Question: And the GI50 (SN12C)?
Answer: 25.8 µM (inactive)

Question: What about the GI50 (SF-268) of the same compound?
Answer: 40.8 µM (inactive)

Question: What about the GI50 (DU-145) of the same compound?
Answer: 58.9 µM (inactive)

Question: What about the GI50 (UACC-257) of the same compound?
Answer: 23.3 µM (inactive)

Question: What about the GI50 (K562) of the same compound?
Answer: 29.3 µM (inactive)

Question: What about the GI50 (TK-10) of the same compound?
Answer: 58.1 µM (inactive)

Question: And the GI50 (RPMI-8226)?
Answer: 19.2 µM (inactive)

Question: What about the GI50 (LOX IMVI) of the same compound?
Answer: 29.2 µM (inactive)

Question: What about the GI50 (SR) of the same compound?
Answer: 33.2 µM (inactive)

Question: And the GI50 (IGROV-1)?
Answer: 18.8 µM (inactive)

Question: And the GI50 (HOP-92)?
Answer: 22.4 µM (inactive)

Question: What about the GI50 (CAKI-1) of the same compound?
Answer: 59.7 µM (inactive)

Question: What about the GI50 (SK-MEL-5) of the same compound?
Answer: 29 µM (inactive)

Question: What about the GI50 (U-251) of the same compound?
Answer: 31.5 µM (inactive)

Question: What about the GI50 (A498) of the same compound?
Answer: 21.7 µM (inactive)

Question: And the GI50 (UO-31)?
Answer: 26.1 µM (inactive)

Question: What about the GI50 (T47D) of the same compound?
Answer: 54.1 µM (inactive)

Question: And the GI50 (EKVX)?
Answer: 27 µM (inactive)

Question: What about the GI50 (MCF7) of the same compound?
Answer: 20 µM (inactive)

Question: And the GI50 (HT-29)?
Answer: 21 µM (inactive)

Question: And the GI50 (OVCAR-3)?
Answer: 49.3 µM (inactive)

Question: What about the GI50 (MOLT-4) of the same compound?
Answer: 15.4 µM (inactive)

Question: What about the GI50 (SK-OV-3) of the same compound?
Answer: 99.5 µM (inactive)

Question: What about the GI50 (PC-3) of the same compound?
Answer: 18.5 µM (inactive)

Question: What about the GI50 (MDA-MB-435) of the same compound?
Answer: 22.1 µM (inactive)

Question: And the GI50 (MDA-N)?
Answer: 11.6 µM (inactive)

Question: And the GI50 (HCT-116)?
Answer: 18.3 µM (inactive)

Question: And the GI50 (SNB-19)?
Answer: 55.8 µM (inactive)

Question: What about the GI50 (786-0) of the same compound?
Answer: 18.7 µM (inactive)

Question: What about the GI50 (RXF 393) of the same compound?
Answer: 29.3 µM (inactive)

Question: And the GI50 (SW-620)?
Answer: 37.5 µM (inactive)

Question: And the GI50 (ACHN)?
Answer: 32.7 µM (inactive)

Question: What about the GI50 (HCC 2998) of the same compound?
Answer: 31.8 µM (inactive)

Question: And the GI50 (UACC-62)?
Answer: 32 µM (inactive)

Question: And the GI50 (M14)?
Answer: 34 µM (inactive)

Question: What about the GI50 (SF-539) of the same compound?
Answer: 56.6 µM (inactive)

Question: And the GI50 (HCT-15)?
Answer: 32.7 µM

Question: And the GI50 (SK-MEL-2)?
Answer: 18.2 µM (inactive)

Question: And the GI50 (KM12)?
Answer: 34 µM (inactive)

Question: What about the GI50 (OVCAR-5) of the same compound?
Answer: 26.5 µM (inactive)

Question: What about the GI50 (BT-549) of the same compound?
Answer: 28.6 µM (inactive)

Question: And the GI50 (SNB-75)?
Answer: 32.6 µM (inactive)

Question: What about the GI50 (HL-60) of the same compound?
Answer: 30.1 µM (inactive)

Question: What about the GI50 (MDA-MB-231) of the same compound?
Answer: 18.5 µM (inactive)

Question: And the GI50 (NCI/ADR-RES)?
Answer: 26.7 µM (inactive)

Question: And the GI50 (OVCAR-4)?
Answer: 43.1 µM (inactive)

Question: What about the GI50 (A549) of the same compound?
Answer: 36.6 µM (inactive)

Question: What about the GI50 (HOP-62) of the same compound?
Answer: 88.1 µM (inactive)

Question: What about the GI50 (OVCAR-8) of the same compound?
Answer: 46.5 µM (inactive)

Question: And the GI50 (NCI-H460)?
Answer: 26.5 µM (inactive)

Question: And the GI50 (CCRF-CEM)?
Answer: 18.8 µM (inactive)

Question: And the GI50 (SK-MEL-28)?
Answer: 54.2 µM (inactive)

Question: What about the GI50 (COLO 205) of the same compound?
Answer: 30.6 µM (inactive)

Question: And the GI50 (Hs-578T)?
Answer: 39.2 µM (inactive)
